Test results published in US20240165123A1, “USE OF A COMPOUND CONTAINING A TRICYCLIC HETEROARYL GROUP” (CSPC Zhongqi Pharmaceutical Technology (Shijiazhuang) Co., …, priority 2021, published 2024).

How the values were obtained:
[1] = tested on: IMQ-induced mouse psoriasis model; experiment: Pharmacodynamic test in the IMQ-induced mouse psoriasis model; format: in vivo, female Balb/c mice; design: key to Skin PASI score Erythema / Skin PASI score Scaling / Skin PASI score Thickness: PASI component score, 0-4 points; key to Skin PASI Total Score: sum of erythema, scaling, thickness scores (each 0-4); key to Skin pathological score: sum of histopathology criterion points; conditions: Dex 3 mpk PO qd
Source text: The purpose of this test was to evaluate the pharmacodynamics of Compound (I) in the IMQ (5% imiquimod cream cream)-induced mouse psoriasis model. One of the clinical adverse effects of imiquimod is to induce the onset of psoriasis.
• Test medicament: Compound (I) • Positive control medicament: dexamethasone (Dex) • Vehicle: 0.4% Tween 80/0.5% methylcellulose.
• female Balb/c mice aged 5-6 weeks, number: 70.
The animals were randomly divided into seven groups according to the body weights on the day before the start of the experiment.
The animals were shaved on their back one day before applying the medicament, forming a skin exposure area having a size of about 2 cm×3 cm. The mice were induced by IMQ, and applied with 62.5 mg of 5% imiquimod cream on the bare back and the right ear at regular intervals every day for 14 days. Mice in the normal control group were applied with vaseline on the bare back and the right ear at regular intervals every day.
The skin thickness was measured daily from the first day of the test until the end of the test.
The skin thickness measurement method was as follows: the back skin and the subcutaneous tissue of the mouse were pinched with the thumb and the index finger of the left hand in the same direction as the mouse body; the skinfold thickness was measured 1 cm away from the pinched part of the left hand (near the center of the molding part) with a digital thickness gauge (with millesimal reading) held in the right hand (model BK-3281, manufacturer: Shanghai Niuhui). The thickness was in mm, and the actual thickness was the half of the measured thickness (the skin thickness=the measured value/2).
The ear thickness was measured daily (at the center of the auricle).
Skin photographs were taken daily from the first day of the test until the end of the test.
The clinical symptoms were evaluated with the PASI evaluation standard from three indicators of the erythema (Erythema), the scale (Scaling) and the skin thickness (Thickness), and scored with 0-4 points. The total score was obtained by summing the three scores. The PASI evaluation standard was as follows: 0, asymptomatic; 1, mild; 2, moderate; 3, severe; 4, extremely severe.
Erythema: 0—no erythema visible; 1—light red; 2—red; 3—dark red; 4—extremely dark red.
Scaling: 0—no visible scale on the skin surface; 1—part of the skin lesion surface covered with scales; 2—most of the skin lesion surface covered with scales; 3—almost all of the skin lesion region covered with scales; 4—all of the skin lesion region covered with scales.
Dryness and pruritus are not included in the total score.
On the 14th day of the test, the spleen weight was collected.
After the test, all mice were euthanized by excessive inhalation of carbon dioxide. The skin was collected and divided into four parts, one of which was fixed in a tissue fixative solution for 24 hours for the pathological is detection. It was dehydrated, then embedded in paraffin and made into 4-micron sections. Skin sections were stained with hematoxylin eosin to observe the infiltration of the stratum corneum, the epidermal layer, the dermis layer and the inflammatory cell. When measuring the thickness of the epidermal layer, the stained skin sections were scanned with a Leca Aperio CS2 scanner at 200×magnification, and then the histopathological changes were observed and scored.
The specific criteria of the pathological score were as follows: munro microabscess found in the epidermal layer 2.0 points; hyperkeratosis 0.5 points; parakeratosis 1.0 points; the thinning or disappearing of the granular layer 1.0 points; the thickening of acanthosis 1.0 points; the extension and fluctuation of cuticular process 0.5, 1.0 and 1.5 points respectively according to the mild, moderate and severe degrees. […]

[2] = tested on: OXA-induced Balb/c mouse atopic dermatitis model; experiment: Pharmacodynamic test in the OXA-induced mouse atopic dermatitis model; format: in vivo, female Balb/c mice
Source text: The purpose of this test was to evaluate the pharmacodynamics of Compound (I) in the OXA-induced Balb/c mouse atopic dermatitis model. Repeated OXA stimulation of the dorsal skin of mice could produce a long-term inflammatory reaction. This model was closer to the clinical skin inflammation and was a common model for screening and evaluating compounds with anti-inflammatory activity.
Female Balb/c mice aged 8-9 weeks, number: 70
According to the body weight of animals in each group before administration, they were randomly divided into 7 groups with 10 animals in each group.
OXA induction was performed on the 7th day. The induction mode was to apply 5% OXA (dissolved in the acetone/olive oil (4/1) solvent) to the back of mice near the neck in an amount of 10 μL (1.5 cm×1.5 cm). Mice in the normal control group were applied with 10 μL of the acetone/olive oil (4/1) solvent in the same way. From the 1st da to 22nd day, the immunostimulation was performed, and 100 μL of 0.1% OXA (dissolved in the acetone/olive oil (4/1) solvent) was evenly applied on the back of mice near the neck. The application was performed every two days. Mice in the normal control group were applied with 100 μL of the acetone/olive oil (4/1) solvent in the same way. On the day of the immunostimulation, measuring the skin thickness, clinically scoring and photographing were required, and the OXA application was carried out after the above work was completed.
Compound (I) was administered by gavage twice a day (PO, bid) from the 1st to 22nd day. The administration was performed in the morning and completed before measuring the skin thickness, clinically scoring, photographing, and the OXA immunostimulation. The interval between two administrations was 8 hours.
Body weight data were recorded twice a week.
Skin thickness (1.5 cm×1.5 cm, the modeling area) was measured with a Mitutoyo digital indicator (Mitutoyo digimatic indicator, Type ID-C, USA) from the 1st to 22nd day. The measurement was performed every two days. If the skin thickness measurement and the OXA immunostimulation were performed on the same day, the skin thickness measurement would be preferred.
The skin in the modeling area was clinically scored according to the skin scoring criteria in Table 12 from the 1st to 22nd day and evaluated every two days. If the skin clinical scoring and the OXA immunostimulation were performed on the same day, the skin clinical scoring would be preferred.
At the end of the study, the tissue in the modeling area was stained with hematoxylin eosin for the skin pathological scoring and the epidermal thickness measurement.
After the mice were sacrificed, the dorsal skin was removed and fixed in 10% neutral formalin for 24 hours. It was dehydrated, then embedded in paraffin and made into 4-micron sections. The skin sections were stained with hematoxylin eosin, and the inflammatory cell infiltration and tissue changes in the stratum corneum, the epidermis layer and the dermis layer were observed under the microscope, and the pathological scores were made. The scoring criteria were: inflammatory cell aggregation and edema, which were divided into slight 1 point, moderate 2 points, and severe 3 points; telangiectasia, which was divided into slight 1 point, moderate 2 points, and severe 3 points.
The specific scoring criteria of inflammatory cell aggregation were as follows: (1) slight-1 point: inflammatory cells occupied a small amount of <10% of the dermal area of the skin; (2) moderate-2 points: inflammatory cells occupied 10%-50% of the dermal area of the skin; (3) severe-3 points: the inflammatory cells occupied greater than 50% of the dermal area of the skin. […]

[3] = Dexamethasone 3 mpk PO qd, 1st Day

C[C@@H]1C[C@H]2[C@@H]3CCC4=CC(=O)C=C[C@]4(C)[C@@]3(F)[C@@H](O)C[C@]2(C)[C@@]1(O)C(=O)CO [Dexamethasone, reference compound]
Ear thickness Left ([1]; 1st Day): 0.14 ± 0.00 mm | Ear thickness Right ([1]; 1st Day): 0.14 ± 0.00 mm | Ear thickness Right-Left ([1]; 1st Day): 0.00 ± 0.00 mm | Skin PASI Total Score ([1]; 1st Day): 0.00 ± 0.00 | Skin PASI score Erythema ([1]; 1st Day): 0.00 ± 0.00 | Skin PASI score Scaling ([1]; 1st Day): 0.00 ± 0.00 | Skin PASI score Thickness ([1]; 1st Day): 0.00 ± 0.00 | Skin thickness ([1]; 1st Day): 0.32 ± 0.00 mm | Ear thickness Left ([1]; 14th Day): 0.15 ± 0.00 mm | Ear thickness Right ([1]; 14th Day): 0.33 ± 0.01 mm | Ear thickness Right-Left ([1]; 14th Day): 0.18 ± 0.00 mm | Skin PASI Total Score ([1]; 14th Day): 4.10 ± 0.18 | Skin PASI score Erythema ([1]; 14th Day): 2.10 ± 0.10 | Skin PASI score Scaling ([1]; 14th Day): 1.10 ± 0.10 | Skin PASI score Thickness ([1]; 14th Day): 0.90 ± 0.10 | Skin thickness ([1]; 14th Day): 0.32 ± 0.01 mm | Epidermal thickness ([1]; after 14 days of treatment): 84.98 ± 7.40 μm | IL-6 content in skin (ELISA) ([1]; after 14 days of treatment): 607.20 ± 76.89 pg/g | Skin pathological score ([1]; after 14 days of treatment): 3.95 ± 0.50 | Spleen weight ([1]; after 14 days of treatment): 93.79 ± 4.64 mg | Spleen weight/body weight (spleen index) ([1]; after 14 days of treatment): 6.17 ± 0.29 mg/g | TNF-alpha content in skin (ELISA) ([1]; after 14 days of treatment): 1172.53 ± 115.72 pg/g | Body weight [2, 3]: 18.08 ± 0.12 g | Skin clinical score [2, 3]: 0.4 ± 0.16 | Skin thickness (modeling area) ([2]; Dexamethasone 3 mpk PO qd, 1st day): 0.532 ± 0.012 mm | Body weight ([2]; Dexamethasone 3 mpk PO qd, −7th Day): 18.08 ± 0.12 g | Influence on the body weight of mice ([2]; dexamethasone 3 mpk PO qd, end of the study): decreased significantly
